Reference: patent US10034861B2 (priority 2016, dated 2018)

Key:
Assay type in all cases: biochemical
PDE1C = PDE1C (Homo sapiens (Human), UniProt Q14123); assay: biochemical; conditions: 15 nM tritium labelled cAMP, 1 hr at room temperature, SPA beads
Source text: (§1) Table 1 lists the IC50 value for inhibition of PDE1 by the compounds of the invention. […] PDE1 assays are described in the Experimental Section.

PDE1A = PDE1A (Homo sapiens (Human), UniProt P54750); assay: biochemical; conditions: 15 nM tritium labelled cAMP, 1 hr at room temperature, SPA beads
Source text: as §1

PDE1B = PDE1B (Homo sapiens (Human), UniProt Q01064); assay: PDE1 inhibition assay (PDE1B); conditions: 15 nM tritium labelled cAMP, 1 hr at room temperature, SPA beads; read-out: PDE1B, IC50
Source text: as §1

Chain of PDE1C (Q14123 whole entry): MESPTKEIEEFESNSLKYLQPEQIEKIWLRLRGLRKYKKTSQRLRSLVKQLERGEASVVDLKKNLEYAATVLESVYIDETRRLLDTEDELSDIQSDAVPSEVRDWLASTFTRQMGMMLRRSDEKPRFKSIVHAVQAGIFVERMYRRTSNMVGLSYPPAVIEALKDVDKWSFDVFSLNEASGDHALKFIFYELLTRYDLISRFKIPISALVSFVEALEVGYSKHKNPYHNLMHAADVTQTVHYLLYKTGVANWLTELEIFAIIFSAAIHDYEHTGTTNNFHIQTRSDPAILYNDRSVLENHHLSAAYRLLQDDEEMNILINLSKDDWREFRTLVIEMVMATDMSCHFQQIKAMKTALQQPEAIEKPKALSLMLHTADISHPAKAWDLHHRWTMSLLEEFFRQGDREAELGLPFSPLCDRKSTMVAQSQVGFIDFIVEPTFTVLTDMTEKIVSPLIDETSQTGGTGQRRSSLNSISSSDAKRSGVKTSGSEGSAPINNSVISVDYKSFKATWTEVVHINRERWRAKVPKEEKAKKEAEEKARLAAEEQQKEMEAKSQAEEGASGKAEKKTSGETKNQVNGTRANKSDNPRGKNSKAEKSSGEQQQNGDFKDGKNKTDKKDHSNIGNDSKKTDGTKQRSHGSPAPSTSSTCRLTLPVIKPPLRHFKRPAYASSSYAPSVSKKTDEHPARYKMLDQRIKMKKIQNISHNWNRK
Chain of PDE1B (Q01064 whole entry): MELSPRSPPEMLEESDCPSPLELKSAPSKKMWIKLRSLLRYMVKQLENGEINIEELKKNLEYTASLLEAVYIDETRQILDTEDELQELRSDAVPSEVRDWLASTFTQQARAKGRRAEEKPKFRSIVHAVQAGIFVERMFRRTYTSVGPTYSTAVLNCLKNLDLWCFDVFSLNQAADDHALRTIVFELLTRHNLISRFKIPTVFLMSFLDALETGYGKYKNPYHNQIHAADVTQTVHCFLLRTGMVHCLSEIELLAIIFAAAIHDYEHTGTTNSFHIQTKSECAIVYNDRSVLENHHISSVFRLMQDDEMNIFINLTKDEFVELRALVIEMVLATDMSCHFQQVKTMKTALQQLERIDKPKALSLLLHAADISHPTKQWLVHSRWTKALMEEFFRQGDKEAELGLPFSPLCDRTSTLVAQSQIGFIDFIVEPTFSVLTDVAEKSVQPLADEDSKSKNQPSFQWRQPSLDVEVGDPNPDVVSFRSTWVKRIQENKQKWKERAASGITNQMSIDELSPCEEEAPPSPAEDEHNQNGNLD
Chain of PDE1A (P54750 whole entry): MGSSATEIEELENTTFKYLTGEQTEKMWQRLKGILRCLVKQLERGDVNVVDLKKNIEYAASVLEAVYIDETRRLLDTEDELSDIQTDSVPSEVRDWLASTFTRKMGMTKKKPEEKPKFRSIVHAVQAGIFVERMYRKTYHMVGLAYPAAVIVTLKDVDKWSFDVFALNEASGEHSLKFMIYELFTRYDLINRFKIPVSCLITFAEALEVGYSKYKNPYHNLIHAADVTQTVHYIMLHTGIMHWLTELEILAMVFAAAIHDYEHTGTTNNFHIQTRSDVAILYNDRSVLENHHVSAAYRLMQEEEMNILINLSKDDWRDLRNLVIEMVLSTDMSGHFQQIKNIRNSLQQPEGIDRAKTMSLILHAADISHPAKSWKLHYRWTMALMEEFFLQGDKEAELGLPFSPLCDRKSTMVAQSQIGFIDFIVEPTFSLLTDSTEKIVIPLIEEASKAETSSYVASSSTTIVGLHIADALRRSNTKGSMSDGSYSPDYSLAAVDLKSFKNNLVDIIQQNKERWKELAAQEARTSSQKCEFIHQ

Row | SMILES | IC50 (PDE1C) | IC50 (PDE1A) | IC50 (PDE1B)
1 | CCOc1ncccc1-c1cc(NCc2ccccc2OC)c2c(n1)c(C)nn2C(C)C [Example 88, 5-(2-ethoxy-3-pyridyl)-1-isopropyl-N-[(2-methoxyphenyl)methyl]-3-methyl-pyrazolo[4,3-b]pyridin-7-amine] | 170 nM | 110 nM | 5.1 nM
2 | CCOc1ncccc1-c1cc(NCc2cc[nH]n2)c2c(n1)c(C)nn2C(C)C [Example 39, 5-(2-ethoxy-3-pyridyl)-1-isopropyl-3-methyl-N-(1H-pyrazol-3-ylmethyl)pyrazolo[4,3-b]pyridin-7-amine] | 13 nM | 8.1 nM | 0.43 nM
3 | CCOc1ncccc1-c1cc(NCc2cnccn2)c2c(n1)c(C)nn2C(C)C [Example 76, 5-(2-ethoxy-3-pyridyl)-1-isopropyl-3-methyl-N-(pyrazin-2-ylmethyl)pyrazolo[4,3-b]pyridin-7-amine] | 32 nM | 23 nM | 2.9 nM
4 | CCOc1ncccc1-c1cc(NCc2cnn(C)c2)c2c(n1)c(C)nn2C1CC1 [Example 12, 1-cyclopropyl-5-(2-ethoxy-3-pyridyl)-3-methyl-N-[(1-methylpyrazol-4-yl)methyl]pyrazolo[4,3-b]pyridin-7-amine] | 690 nM | 200 nM | 60 nM
5 | COc1ncccc1CNc1cc(-c2ccnn2C)nc2c(C)nn(C(C)C)c12 [Example 175, 1-isopropyl-N-((2-methoxypyridin-3-yl)methyl)-3-methyl-5-(1-methyl-1H-pyrazol-5-yl)-1H-pyrazolo[4,3-b]pyridin-7-amine] | 130 nM | 83 nM | 17 nM
6 | CCOc1ncccc1-c1cc(NCc2cn(C)cn2)c2c(n1)c(C)nn2C(C)C [Example 58, 5-(2-ethoxypyridin-3-yl)-1-isopropyl-3-methyl-N-((1-methyl-1H-imidazol-4-yl)methyl)-1H-pyrazolo[4,3-b]pyridin-7-amine 2,2,2-trifluoroacetate] | 2.1 nM | 1.1 nM | 0.17 nM
7 | CCOc1ncccc1-c1cc(NCc2ncccc2OC)c2c(n1)c(C)nn2C(C)C [Example 118, 5-(2-ethoxy-3-pyridyl)-1-isopropyl-N-[(3-methoxy-2-pyridyl)methyl]-3-methyl-pyrazolo[4,3-b]pyridin-7-amine] | 88 nM | 13 nM | 0.42 nM
8 | COc1ccc(CNc2cc(-c3cccnc3N(C)C)nc3c(C)nn(C(C)C)c23)cc1 [Example 192, 5-[2-(dimethylamino)-3-pyridyl]-1-isopropyl-N-[(4-methoxyphenyl)methyl]-3-methyl-pyrazolo[4,3-b]pyridin-7-amine] | 490 nM | 630 nM | 71 nM
9 | Cc1nn(C(C)C)c2c(NCc3cnn(C)c3)cc(-c3ccc[nH]c3=O)nc12 [Example 177, 3-[1-isopropyl-3-methyl-7-[(1-methylpyrazol-4-yl)methylamino]pyrazolo[4,3-b]pyridin-5-yl]-1H-pyridin-2-one] | 180 nM | 130 nM | 20 nM
10 | CCOc1ncccc1-c1cc(NCc2csc(C)n2)c2c(n1)c(C)nn2C1COC1 [Example 113, 5-(2-ethoxy-3-pyridyl)-3-methyl-N-[(2-methylthiazol-4-yl)methyl]-1-(oxetan-3-yl)pyrazolo[4,3-b]pyridin-7-amine] | 130 nM | 110 nM | 5.7 nM
11 | CCOc1ncccc1-c1cc(NCc2ccccc2)c2c(cnn2C(C)C)n1 [Example 41, N-benzyl-5-(2-ethoxy-3-pyridyl)-1-isopropyl-pyrazolo[4,3-b]pyridin-7-amine] | 500 nM | 500 nM | 45 nM
12 | Cc1nn(C)cc1-c1cc(NCc2cnn(C)c2)c2c(n1)c(C)nn2C(C)C [Example 61, 5-(1,3-dimethylpyrazol-4-yl)-1-isopropyl-3-methyl-N-[(1-methylpyrazol-4-yl)methyl]pyrazolo[4,3-b]pyridin-7-amine] | 680 nM | 550 nM | 120 nM
13 | COc1ccccc1-c1cc(NCc2cnn(C)c2)c2c(n1)c(C)nn2C(C)C [Example 63, 1-isopropyl-5-(2-methoxyphenyl)-3-methyl-N-[(1-methylpyrazol-4-yl)methyl]pyrazolo[4,3-b]pyridin-7-amine] | 20 nM | 64 nM | 9.4 nM
14 | CCOc1ncccc1-c1cc(NCc2cnn(C)c2)c2c(n1)c(CF)nn2C(C)C [Example 199, 5-(2-ethoxypyridin-3-yl)-3-(fluoromethyl)-1-isopropyl-N-((1-methyl-1H-pyrazol-4-yl)methyl)-1H-pyrazolo[4,3-b]pyridin-7-amine] | 26 nM | 7.4 nM | 0.75 nM
15 | COc1ncccc1CNc1cc(-c2cccnc2C(F)(F)F)nc2c(C)nn(C(C)C)c12 [Example 183, 1-isopropyl-N-((2-methoxypyridin-3-yl)methyl)-3-methyl-5-(2-(trifluoromethyl)pyridin-3-yl)-1H-pyrazolo[4,3-b]pyridin-7-amine] | 350 nM | 290 nM | 38 nM
16 | CCOc1ncccc1-c1cc(NCc2ccc(C)s2)c2c(n1)c(C)nn2C(C)C [Example 36, 5-(2-ethoxy-3-pyridyl)-1-isopropyl-3-methyl-N-[(5-methyl-2-thienyl)methyl]pyrazolo[4,3-b]pyridin-7-amine] | 41 nM | 24 nM | 5.2 nM
17 | CCOc1ncccc1-c1cc(NCc2ccn(C)n2)c2c(cnn2C(C)C)n1 [Example 19, 5-(2-ethoxypyridin-3-yl)-1-isopropyl-N-((1-methyl-1H-pyrazol-3-yl)methyl)-1H-pyrazolo[4,3-b]pyridin-7-amine] | 150 nM | 66 nM | 4.6 nM
18 | CCOc1ncccc1-c1cc(CCc2ncn(C)n2)c2c(n1)c(C)nn2C(C)C [Example 160, 5-(2-ethoxy-3-pyridyl)-1-isopropyl-3-methyl-7-[2-(1-methyl-1,2,4-triazol-3-yl)ethyl]pyrazolo[4,3-b]pyridine] | 56 nM | 23 nM | 3.9 nM
19 | Cc1csc(-c2cc(NCc3cnn(C)c3)c3c(n2)c(C)nn3C(C)C)n1 [Example 149, 1-isopropyl-3-methyl-N-[(1-methylpyrazol-4-yl)methyl]-5-(4-methylthiazol-2-yl)pyrazolo[4,3-b]pyridin-7-amine] | 69 nM | 29 nM | 2.4 nM
20 | CCOc1ncccc1-c1cc(NCc2ccccc2F)c2c(n1)c(C)nn2C(C)C [Example 89, 5-(2-ethoxy-3-pyridyl)-N-[(2-fluorophenyl)methyl]-1-isopropyl-3-methyl-pyrazolo[4,3-b]pyridin-7-amine] | 93 nM | 61 nM | 1.5 nM
21 | Cc1ncoc1-c1cc(NCc2cnn(C)c2)c2c(n1)c(C)nn2C(C)C [Example 200, 1-isopropyl-3-methyl-N-((1-methyl-1H-pyrazol-4-yl)methyl)-5-(4-methyloxazol-5-yl)-1H-pyrazolo[4,3-b]pyridin-7-amine] | 110 nM | 98 nM | 18 nM
22 | CCOc1ncccc1-c1cc(NCc2ncc(C)o2)c2c(n1)c(C)nn2C(C)C [Example 38, 5-(2-ethoxy-3-pyridyl)-1-isopropyl-3-methyl-N-[(5-methyloxazol-2-yl)methyl]pyrazolo[4,3-b]pyridin-7-amine] | 13 nM | 1.1 nM | 0.24 nM
23 | Cc1nn(C(C)C)c2c(NCc3cnn(C)c3)cc(-c3nncn3C)nc12 [Example 203, 1-isopropyl-3-methyl-N-[(1-methylpyrazol-4-yl)methyl]-5-(4-methyl-1,2,4-triazol-3-yl)pyrazolo[4,3-b]pyridin-7-amine] | 420 nM | 410 nM | 180 nM
24 | Cc1nocc1-c1cc(NCc2cnn(C)c2)c2c(n1)c(C)nn2C(C)C [Example 194, 1-isopropyl-3-methyl-5-(3-methylisoxazol-4-yl)-N-[(1-methylpyrazol-4-yl)methyl]pyrazolo[4,3-b]pyridin-7-amine] | 21 nM | 95 nM | 23 nM
25 | CCOc1ncccc1-c1cc(NCc2cccc(C(F)(F)F)n2)c2c(n1)c(C)nn2C(C)C [Example 107, 5-(2-ethoxy-3-pyridyl)-1-isopropyl-3-methyl-N-[[6-(trifluoromethyl)-2-pyridyl]methyl]pyrazolo[4,3-b]pyridin-7-amine] | 170 nM | 110 nM | 5.6 nM
26 | CCOc1ncccc1-c1cc(NCc2ccn(C)c(=O)c2)c2c(n1)c(C)nn2C(C)C [Example 78, 4-[[[5-(2-ethoxy-3-pyridyl)-1-isopropyl-3-methyl-pyrazolo[4,3-b]pyridin-7-yl]amino]methyl]-1-methyl-pyridin-2-one] | 44 nM | 27 nM | 3.2 nM
27 | CCOc1ncccc1-c1cc(NCc2nccs2)c2c(cnn2C(C)C)n1 [Example 20, 5-(2-ethoxy-3-pyridyl)-1-isopropyl-N-(thiazol-2-ylmethyl)pyrazolo[4,3-b]pyridin-7-amine] | 600 nM | 520 nM | 37 nM
28 | CCOc1ncccc1-c1cc(NCc2ccn(C)n2)c2c(n1)c(C)nn2C(C)C [Example 60, 5-(2-ethoxy-3-pyridyl)-1-isopropyl-3-methyl-N-[(1-methylpyrazol-3-yl)methyl]pyrazolo[4,3-b]pyridin-7-amine] | 12 nM | 6.5 nM | 0.59 nM
29 | CCOc1ncccc1-c1cc(NCc2csc(C)c2)c2c(n1)c(C)nn2C(C)C [Example 34, 5-(2-ethoxy-3-pyridyl)-1-isopropyl-3-methyl-N-[(5-methyl-3-thienyl)methyl]pyrazolo[4,3-b]pyridin-7-amine] | 21 nM | 8.1 nM | 1.8 nM
